According to US9751846B2, “Method for producing 1,4-benzoxazine compound” (MITSUBISHI TANABE PHARMA CORPORATION, priority 2012, dated 2017):
“Also recorded” adds a separate entry of the source.

Columns and labels:
[1] = stability of the crystal form (transition by heating, thermostability); type: physicochemical; conditions: for stability of the crystal: general statement
[2] = hygroscopicity of the crystal form; type: physicochemical
[3] = stability of the crystal in a formulation; type: physicochemical
mutagenicity (AMES test) = type: cell-based

| stability of the crystal [1] | Structure (SMILES) | hygroscopicity [2] | further results |
| --- | --- | --- | --- |
| highly stable | CC1(C)Oc2cc(NS(C)(=O)=O)ccc2N(c2ccc(F)cc2)C1=O [Form B crystal, N-[4-(4-fluorophenyl)-2,2-dimethyl-3-oxo-3,4-dihydro-2H-1,4-benzoxazin-7-yl]methanesulfonamide] | low hygroscopicity | thermostability ([1]; as compared to the Form D crystal of Patent Literature 1): higher thermostability |
| highly stable | CC1(C)Oc2cc(NS(C)(=O)=O)ccc2N(c2ccc(F)cc2)C1=O [Form A crystal, N-[4-(4-fluorophenyl)-2,2-dimethyl-3-oxo-3,4-dihydro-2H-1,4-benzoxazin-7-yl]methanesulfonamide] | low hygroscopicity; also recorded: non-hygroscopic | stability in a formulation [3]: high stability in a formulation; also recorded: highly stable in a formulation; transition to amorphous state or other crystal form by heating ([1]; heating): hardly makes a transition to other crystal form by heating; also recorded: does not transform to an amorphous state or other crystal form |
| – | CC1(C)Oc2cc(N)ccc2N(c2ccc(F)cc2)C1=O [intermediate (2), 7-amino-4-(4-fluorophenyl)-2,2-dimethyl-2H-1,4-benzoxazin-3(4H)-one] | – | mutagenicity by the AMES test (mutagenicity (AMES test); synthetic intermediate of the Patent Literature 1 route): strong mutagenicity |
| highly stable | CC1(C)Oc2cc(NS(C)(=O)=O)ccc2N(c2ccc(F)cc2)C1=O [Form C crystal, N-[4-(4-fluorophenyl)-2,2-dimethyl-3-oxo-3,4-dihydro-2H-1,4-benzoxazin-7-yl]methanesulfonamide] | – | – |
| – | CC1(C)Oc2cc(N(S(C)(=O)=O)S(C)(=O)=O)ccc2N(c2ccc(F)cc2)C1=O [compound [c], N-[4-(4-fluorophenyl)-2,2-dimethyl-3-oxo-3,4-dihydro-2H-1,4-benzoxazin-7-yl]-N-(methylsulfonyl)methanesulfonamide] | – | mutagenicity (mutagenicity (AMES test); test not named at this place, synthetic intermediate of the new route): lower mutagenicity |
